Source: patent publication US20230085307A1, “PYRIDAZINONE COMPOUND AND HERBICIDE” (NISSAN CHEMICAL CORPORATION, priority 2019, published 2023)

Assays:
[1] = tested on: Japanese bulrush; assay: Test Example 2: herbicidal activity, application during weed generation under submerged conditions (Table 17, symbol B); format: in vivo, Japanese bulrush (Schoenoplectus juncoides); conditions: AAH 320 g/ha; application during weed generation, submerged conditions
Outline: (§1)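 Wagner pot, alluvial soil, 4 cm flood; mixed sowing of all species; greenhouse 25° C.–30° C. Emulsifiable formulation, water-diluted to predetermined dose, applied to paddy water at 1–2 leaf stage. Effect rated at 3 wk using the earlier test's scoring criteria.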

[2] = tested on: blackgrass; assay: Test Example 4: herbicidal effect by soil treatment (Table 19, symbol J); format: in vivo, blackgrass (Alopecurus myosuroides)
Outline: (§2)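 Emulsion of test compound, water-diluted to predetermined amount, sprayed on soil after sowing (seed depth ~1.5 cm, sterilized diluvial soil). Greenhouse, 25–30° C. Effect graded at three weeks post-spray.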

[3] = tested on: windgrass; assay: Test Example 5: herbicidal effect by foliage application, plastic box (Table 20, symbol L); format: in vivo, windgrass (Apera spica-venti); conditions: foliage application, 320 g/ha
Outline: (§3)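 Post-emergence foliar test in sterilized diluvial soil. Compound applied as water-diluted emulsion at a predetermined rate to 14-day-old plants; evaluation at three weeks.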

[4] = tested on: green foxtail; assay: Test Example 4: herbicidal effect by soil treatment (Table 19, symbol G); format: in vivo, green foxtail (Setaria viridis)
Outline: as §2

[5] = tested on: late watergrass; assay: Test Example 1: herbicidal activity, application before weed generation under submerged conditions (Table 16, symbol A); format: in vivo, late watergrass (Echinochloa oryzicola); conditions: 320 g/ha applied herbicide
Outline: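 Emulsion formulation, water-diluted to set dose, was put onto the flooded surface (4 cm depth, alluvial soil) the same day weeds were sown and 2.5-leaf rice transplanted. After 3 weeks at 25-30 °C under glass, each species was rated 0 (≤5% kill) to 5 (≥90% kill).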

[6] = tested on: green foxtail; assay: Test Example 5: herbicidal effect by foliage application, plastic box (Table 20, symbol G); format: in vivo, green foxtail (Setaria viridis); conditions: foliage application, 320 g/ha
Outline: as §3

[7] = tested on: redroot pigweed; assay: Test Example 4: herbicidal effect by soil treatment (Table 19, symbol N); format: in vivo, redroot pigweed (Amaranthus retroflexus)
Outline: as §2

[8] = tested on: Italian ryegrass; assay: Test Example 4: herbicidal effect by soil treatment (Table 19, symbol K); format: in vivo, Italian ryegrass (Lolium multiflorum)
Outline: as §2

[9] = tested on: southern crabgrass; assay: Test Example 5: herbicidal effect by foliage application, plastic box (Table 20, symbol F); format: in vivo, southern crabgrass (Digitaria ciliaris); conditions: foliage application, 320 g/ha
Outline: as §3

[10] = tested on: oval-leafed pondweed; assay: Test Example 2: herbicidal activity, application during weed generation under submerged conditions (Table 17, symbol C); format: in vivo, oval-leafed pondweed (Monochoria vaginalis); conditions: AAH 320 g/ha; application during weed generation, submerged conditions
Outline: as §1

[11] = tested on: rice flat sedge; assay: Test Example 3: herbicidal effect by foliage application, Wagner pot (Table 18, symbol E); format: in vivo, rice flat sedge (Cyperus iria); conditions: 320 g/ha
Outline: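 Plants were sown in alluvial soil held under 0.1–0.5 cm standing water and grown 14 days in a greenhouse at 25–30 °C. An emulsifiable formulation, water-diluted to the set dose, was then sprayed onto the foliage, and effects were scored three weeks later using previously defined criteria.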

[12] = tested on: chickweed; assay: Test Example 4: herbicidal effect by soil treatment (Table 19, symbol P); format: in vivo, common chickweed (Stellaria media)
Outline: as §2

[13] = tested on: chickweed; assay: Test Example 5: herbicidal effect by foliage application, plastic box (Table 20, symbol P); format: in vivo, common chickweed (Stellaria media); conditions: foliage application, 320 g/ha
Outline: as §3

[14] = tested on: wild oat; assay: Test Example 5: herbicidal effect by foliage application, plastic box (Table 20, symbol I); format: in vivo, wild oat (Avena fatua); conditions: foliage application, 320 g/ha
Outline: as §3

[15] = tested on: persian speedwell; assay: Test Example 5: herbicidal effect by foliage application, plastic box (Table 20, symbol R); format: in vivo, Persian speedwell (Veronica persica); conditions: foliage application, 320 g/ha
Outline: as §3

[16] = tested on: southern crabgrass; assay: Test Example 4: herbicidal effect by soil treatment (Table 19, symbol F); format: in vivo, southern crabgrass (Digitaria ciliaris)
Outline: as §2

[17] = amount of applied herbicide 320 g/ha
[18] = evaluated three weeks after application

Cc1nn(C)c(=O)c(-c2c(-c3ccc4c(c3)OCO4)sc3ccccc23)c1O [1-087]
herbicidal effect rating, B: Japanese bulrush [1]: 1 (Herbicidal rate of 5% or more and less than 20%)
herbicidal effect rating, J: blackgrass [2, 17]: 0 (Herbicidal rate of 5% or less (almost no effect))
herbicidal effect grade, L: windgrass ([3]; three weeks after application): 0 (Herbicidal rate of 5% or less (almost no effect))
herbicidal effect rating, G: green foxtail [4, 17]: 5 (Herbicidal rate of 90% or more (almost completely withered))
Herbicidal effect on A: late watergrass (grade 0-5) [5]: 3 (Herbicidal rate of 40% or more and less than 70%)
herbicidal effect grade, G: green foxtail ([6]; three weeks after application): 5 (Herbicidal rate of 90% or more (almost completely withered))
herbicidal effect rating, N: redroot pigweed [7, 17]: 5 (Herbicidal rate of 90% or more (almost completely withered))
herbicidal effect rating, K: Italian ryegrass [8, 17]: 3 (Herbicidal rate of 40% or more and less than 70%)
herbicidal effect grade, F: southern crabgrass ([9]; three weeks after application): 5 (Herbicidal rate of 90% or more (almost completely withered))
herbicidal effect rating, C: oval-leafed pondweed [10]: 3 (Herbicidal rate of 40% or more and less than 70%)
herbicidal effect on E (rice flat sedge), rating 0-5 [11]: 5 (Herbicidal rate of 90% or more (almost completely withered))
herbicidal effect rating, P: chickweed [12, 17]: 5 (Herbicidal rate of 90% or more (almost completely withered))
herbicidal effect grade, P: chickweed ([13]; three weeks after application): 5 (Herbicidal rate of 90% or more (almost completely withered))
herbicidal effect grade, I: wild oat ([14]; three weeks after application): 1 (Herbicidal rate of 5% or more and less than 20%)
herbicidal effect grade, R: persian speedwell ([15]; three weeks after application): 5 (Herbicidal rate of 90% or more (almost completely withered))
herbicidal effect rating, F: southern crabgrass [16, 17]: 2 (Herbicidal rate of 20% or more and less than 40%)

CCCC(=O)Oc1c(C)nn(C)c(=O)c1-c1c(-c2ccc(OC)c(OC)c2)sc2ccc(F)cc12 [2-089]
herbicidal effect rating, B: Japanese bulrush [1]: 3 (Herbicidal rate of 40% or more and less than 70%)
herbicidal effect rating, J: blackgrass ([2]; 320 g/ha): 0 (Herbicidal rate of 5% or less (almost no effect))
herbicidal effect on L: windgrass [3, 18]: 0 (Herbicidal rate of 5% or less (almost no effect))
herbicidal effect rating, G: green foxtail ([4]; 320 g/ha): 5 (Herbicidal rate of 90% or more (almost completely withered))
Herbicidal effect on A: late watergrass (grade 0-5) [5]: 5 (Herbicidal rate of 90% or more (almost completely withered))
herbicidal effect on G: green foxtail [6, 18]: 5 (Herbicidal rate of 90% or more (almost completely withered))
herbicidal effect rating, N: redroot pigweed ([7]; 320 g/ha): 4 (Herbicidal rate of 70% or more and less than 90%)
herbicidal effect rating, K: Italian ryegrass ([8]; 320 g/ha): 4 (Herbicidal rate of 70% or more and less than 90%)
herbicidal effect on F: southern crabgrass [9, 18]: 3 (Herbicidal rate of 40% or more and less than 70%)
herbicidal effect rating, C: oval-leafed pondweed [10]: 4 (Herbicidal rate of 70% or more and less than 90%)
herbicidal effect on E (rice flat sedge), rating 0-5 [11]: 5 (Herbicidal rate of 90% or more (almost completely withered))
herbicidal effect rating, P: chickweed ([12]; 320 g/ha): 3 (Herbicidal rate of 40% or more and less than 70%)
herbicidal effect on P: chickweed [13, 18]: 5 (Herbicidal rate of 90% or more (almost completely withered))
herbicidal effect on I: wild oat [14, 18]: 0 (Herbicidal rate of 5% or less (almost no effect))
herbicidal effect on R: persian speedwell [15, 18]: 5 (Herbicidal rate of 90% or more (almost completely withered))
herbicidal effect rating, F: southern crabgrass ([16]; 320 g/ha): 4 (Herbicidal rate of 70% or more and less than 90%)
